{"source": "patent US20070135383A1", "about": "“Phospholipase inhibitors, including multi-valent phospholipase inhibitors, and use thereof, including as lumen-localized phospholipase inhibitors” (priority 2005, published 2007)", "biological_target": "T1, Porcine PLA2 IB (Sus scrofa, UniProt P00592)", "T1 construct": "purchased", "T1 sequence (P00592 23-146)": "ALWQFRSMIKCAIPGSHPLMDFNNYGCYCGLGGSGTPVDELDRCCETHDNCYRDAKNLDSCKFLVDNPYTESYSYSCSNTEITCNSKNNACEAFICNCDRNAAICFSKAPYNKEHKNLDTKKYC", "experiment": "Continuous fluorimetric PLA2 assay, PPyrPG vesicles (Example 1B-1)", "assay_type": "biochemical", "details": "restated in Example 10, refers to Example 1B-1; read-out: IC-50 value", "excerpt": "A continuous fluorimetric assay for PLA2 activity described in the literature was used to determine IC (Leslie, C C and Gelb, M H (2004) Methods in Molecular Biology “Assaying phospholipase A2 activity”, 284: 229-242, Singer, A G, et al. (2002) Journal of Biological Chemistry “Interfacial kinetic and binding properties of the complete set of human and mouse groups I, II, V, X, and XII secreted phospholipases A2”, 277: 48535-48549, Bezzine, S, et al. (2000) Journal of Biological Chemistry “Exogenously added human group X secreted phospholipase A(2) but not the group IB, IIA, and V enzymes efficiently release arachidonic acid from adherent mammalian cells”, 275: 3179-3191) and references therein.\nGenerally, this assay used a phosphatidylglycerol (or phosphatidylmethanol) substrate with a pyrene fluorophore on the terminal end of the sn-2 fatty acyl chain. […] The effect of a given inhibitor and inhibitor concentration on any given phospholipase can be determined. […]\nIn this example, the procedure was performed as follows: • 1. […] The fluorescence was read using an excitation of 342 nm and an emission of 395 nm.\nIn this example, the IC50 was calculated using the BioDataFit 1.02 (Four Parameter Model) software package. […]", "data": [{"smiles": "Cc1c(C(=O)C(N)=O)c2c(OCC(=O)O)cccc2n1Cc1ccccc1-c1ccccc1", "note": "[ILY-4001, 2-(3-(2-amino-2-oxoacetyl)-1-(biphenyl-2-ylmethyl)-2-methyl-1H-indol-4-yloxy)acetic acid]", "values": [{"measurement": "IC50", "result": "~62", "unit": "nM"}]}]}
